Results on 1 compound are retold here after patent publication US20240058318A1, “DEGRADING PKCB1 TO TREAT CANCER” (Mayo Foundation for Medical Education and Research, priority 2020, published 2024).

As a reminder, the pIC50 is the negative decadic logarithm of the IC50, by convention in mol/L.

SMILES strings stand for the structures. pIC50: −log10 of the molar value. Where “and” joins values, the source holds several entries; their conditions need not be identical. Equal values may be shown once. Where only a bound is given, the exact number is not on record here.

Series [1] relates to unfolded protein response (UPR) mRNAs. The experiment in a line: qRT-PCR of UPR-associated mRNAs in MDAMB231 cells. As to conditions: 1 μM, 0-48 hours, fold relative to DMSO. In kind it is cell-based. The protocol: To evaluate the effect of PROTAC 7 (Pr-7) on expression of various proapoptotic polypeptides, triple negative MDAMB231 cells were treated with DMSO, 1 μM Pr-7, or 1 μM ENDX, and mRNA levels were assessed by qRT-PCR at 0-, 1-, 8-, 24-, and 48-hour time points.
(§1) Triple negative breast cancer MDA-MB-231 cells were cultured in phenol-red free DMEM/F12 medium supplemented with 10% FBS and 1% AA. Cells were plated at 1×10^6 cells per 10 cm dish. The next day, the cells were treated with DMSO, 1 μM Pr-7 or 1 μM ENDX for 1, 8, 24, and 48 hours, and were then processed for RNA and RIPA protein analysis.
In particular, total RNA from tissue samples and cell lines was extracted using the RNEASY® Plus mini kit (Qiagen; Hilden, Germany), cDNA was generated using a ISCRIPT™ cDNA synthesis kit (Bio-Rad; Hercules, CA) and qRT-PCR reactions were set up using PERFECTA® SYBR™ green fast mix reagents (Quanta BioSciences; Beverly, MA) and gene-specific primer sets (IDT; Coralville, IA). The forward and reverse primer sequences for the genes used in this analysis were obtained from the Harvard PrimerBank database. Amplification of HPRT and tubulin was used as an internal control. Relative expression between samples was calculated by the comparative Ct method.
A general note: Quantitative PCR measures a nucleic acid by following its amplification.

Series [2] in a line: Pharmacokinetics in mice, plasma by UPLC-MS/MS. The format is in vivo, female CD1 mice. As to conditions: for Concentration ENDX PROTAC 7: mouse plasma. How it is done: ENDX PROTAC 7 and PROTAC 9 pharmacokinetics were characterized in female CD1 mice. Blood samples were collected from mice anesthetized under isoflurane via retro-orbital eye bleed into tubes containing EDTA and immediately chilled on ice. NaF was added to the EDTA collection tubes to help stabilize the drug in whole blood for the second IV and IP studies with ENDX PROTAC 9, and for the IV and oral studies with PROTAC 7. Plasma and red blood cells were separated immediately by centrifugation in a refrigerated centrifuge at 4° C. The plasma was transferred to a separate tube and immediately frozen at −20° C.
For IV dosing, ENDX PROTAC 9 was dissolved in 10% DMSO, 10% PEG 400, and 80% normal saline for a final concentration of 0.2 mg/mL ENDX PROTAC 9 for the 1 mg/kg IV doses. ENDX PROAC 7 was dissolved in 15% DMSO, 9.44% PEG400, and […] normal saline for a final concentration of 0.19 mg/mL for the 1 mg/kg IV doses. Blood samples (3 mice per time-point) were collected 5 minutes, 15 minutes, 0.5 hour, 1 hour, 2 hours, 4 hours, 8 hours, and 24 hours after administration of the ENDX PROTAC. A second IV study was performed for ENDX PROTAC 9 in which blood samples (3 mice per time-point) were collected 5 minutes, 15 minutes, 1 hour, and 2 hours after administration of ENDX PROTAC 9. For oral dosing, ENDX PROTAC 9 (10 mg/kg) and ENDX PROTAC 7 (10 mg/kg) were suspended in 1 mM ascorbic acid:PEG400, 1:1 v/v for a final concentration of 1.0 mg/mL ENDX PROTAC. Blood samples (three mice per time-point) were collected 15 minutes, 0.5 hour, 1 hour, 2 hours, 4 hours, 6 hours, 8 hours, and 24 hours after administering the ENDX PROTAC. For LP. dosing, ENDX PROTAC 9 (4 mg/kg) was prepared in 1 mM ascorbic acid:PEG400, 1:1 v/v for a final concentration of 0.4 mg/mL ENDX PROTAC 9. Blood samples (three mice per time-point) were collected 15 minutes, 0.5 hour, 1 hour, 2 hours, 4 hours, 6 hours, 8 hours, and 24 hours after administration. Plasma concentrations of ENDX PROTAC 7 and 9 were measured using UPLC-MS/MS.

Series [3] deals with BT549 cells. The experiment in a line: Crystal violet (CV) proliferation assay, BT549. The format is cell-based. The note with it: BT549 (PKCß1 high, Rb negative), 2000 cells. How it is done:
Cell proliferation rates were determined using crystal violet assays. […] Cells were fixed with 25% glutaraldehyde for 10 minutes with shaking, washed 5 times with distilled water, stained with a 1% crystal violet solution (solubilized in 25% methanol) for 10 minutes, washed again 5 times and allowed to dry. De-staining was performed using […] sodium citrate in 50% ethanol followed by quantification using a 96 well spectrophotometer set at an absorbance of 550 nm.

Series [4] concerns ER-stress induced UPR pathway. The series is described as follows: Western blot of UPR pathway proteins in MDA-MB-231 cells. The format is cell-based. As to conditions: 1 μM. How it is done: as §1
For western blotting, 30 μg of protein lysates were run on Criterion precast 10% Bis-Tris gel, transferred to PVDF membrane, incubated in TBST-5% milk for one hour followed by overnight incubation with phospho-IRE1α (Sigma SAB5700519, rabbit, 1:1000), IRE1α (CS3294, rabbit, 1:1000), phospho-eIF2α (CS3398, rabbit, 1:1000), eIF2α (CS5324, rabbit, 1:1000), CHOP (CS2895, mouse, 1:1000), PUMA (SC374223, mouse, 1:200), NOXA (CS14766, rabbit, 1:1000), E2F1 (SC251, mouse, 1:250), BCL2 (SC7382, 1:200), cleaved PARP (CS5625, rabbit, 1:1000), PARP (CS9542, rabbit, 1:1000), PKCβ1 (SC8049, mouse, 1:200), PKCδ (CS2058, rabbit, 1:1000) and Actin (Sigma A2228, mouse, 1:10,000) primary antibodies in TBST-5% BSA solution. Membranes were washed in TBS-T, incubated for one-hour in HRP-linked anti-rabbit or anti-mouse secondary antibodies in TBST-5% milk, and washed with TBS-T. Bands were developed using west-pico or west-femto chemiluminescent substrate reagents.

The mark [5] stands for this setting: mice, oral 10 mg/kg, NaF in tubes.

Consider `CC/C(=C(\c1ccc(O)cc1)c1ccc(OCCN(C)C(=O)COCCNC(=O)Cc2ccc3c(c2)CN(C2CCC(=O)NC2=O)C3=O)cc1)c1ccccc1` (centres unmarked) [TC-Pr-007], for which, in series [1], the “mRNA expression of UPR-associated genes” value was “increased mRNA expression for CHOP, MCL-1, PUMA, NOXA, and Xbp-1”. Besides, the “Concentration ENDX PROTAC 7” value is 37.27 ng/mL and 57.95 ng/mL and 30.96 ng/mL in series [2] (IV (1 mg/kg), 15 minutes, listed as ENDX PROTAC 7, 1 mg/kg); 10.89 ng/mL and 19.85 ng/mL and 16.62 ng/mL in series [2] (IV (1 mg/kg), 30 minutes, listed as ENDX PROTAC 7, 1 mg/kg); 8.35 ng/mL and 9.53 ng/mL and 8.69 ng/mL in series [2] (IV (1 mg/kg), 120 minutes, listed as ENDX PROTAC 7, 1 mg/kg); 0.75 ng/mL and 0.7 ng/mL and 0.93 ng/mL in series [2] (PO (10 mg/kg), 15 minutes, listed as ENDX PROTAC 7, 10 mg/kg); 0.64 ng/mL and 0.81 ng/mL and 0.83 ng/mL in series [2] (PO (10 mg/kg), 30 minutes, listed as ENDX PROTAC 7, 10 mg/kg); 0.53 ng/mL and 0.4 ng/mL and 0.44 ng/mL in series [2] (PO (10 mg/kg), 360 minutes, listed as ENDX PROTAC 7, 10 mg/kg). Besides, in series [2] (PO (10 mg/kg), 480 minutes, listed as ENDX PROTAC 7, 10 mg/kg), the “Concentration ENDX PROTAC 7” value was 0.69 ng/mL and 0.37 ng/mL and 0.4 ng/mL. The compound also gave an elimination half-life in series [2] (mice, I.V. 1 mg/kg, NaF in tubes) of 5 h. The peak plasma concentration in series [2] (mice, IV 1 mg/kg, NaF in tubes) was found to be 129.7 ng/mL; in series [2] (setting [5]) it was 1.24 ng/mL. The “time of peak plasma concentration” value in series [2] (mice, IV 1 mg/kg, NaF in tubes) was not above 5 min; in series [2] (setting [5]), not above 60 min. In series [2] (mice, oral 10 mg/kg vs IV 1 mg/kg, NaF in tubes), this compound registered an Oral bioavailability of 0.85%. This compound gave a pIC50 in series [3] of 7.37. Moreover, in series [4], the E2F1 expression result is given as “downregulation”. For the same compound, the E2F7 activation result in series [4] is “activated E2F7”. Also, the PARP cleavage result in series [4] is “increased PARP cleavage”. Moreover, in series [4], the “expression of anti-apoptotic protein BCL2” value is listed as “downregulated”. Also, the “activation of ER-stress induced UPR pathway” value in series [4] (1-48 hours) was “robustly activated multiple components”.
